Measurements reported in patent US6737383B1, “Herbicidal oxadiazolidines” (priority 1999, dated 2004).

How the values were obtained:
[1] = test system: cocklebur; test: Test B pre/postemergence cocklebur; format: in vivo, Xanthium strumarium
In short: (§1)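 Herbicidal effect was estimated by eye on a ten-point control scale after plants spent twelve to sixteen days in a greenhouse following soil or foliar treatment. Foliar sprays targeted plants at one to four leaves; all doses were formulated in a non-phytotoxic solvent with surfactant.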

[2] = test system: surinam grass; test: Test B pre/postemergence surinam grass; format: in vivo, Brachiaria decumbens
In short: as §1

[3] = test system: crabgrass; test: Test B pre/postemergence crabgrass; format: in vivo, Digitaria sanguinalis
In short: as §1

[4] = test system: sugar beet; test: Test B pre/postemergence sugar beet; format: in vivo, Beta vulgaris
In short: as §1

[5] = test system: wheat; test: Test B pre/postemergence wheat; format: in vivo, Triticum aestivum
In short: as §1

[6] = test system: blackgrass; test: Test B pre/postemergence blackgrass; format: in vivo, Alopecurus myosuroides
In short: as §1

[7] = test system: purple nutsedge; test: Test B pre/postemergence purple nutsedge; format: in vivo, Cyperus rotundus
In short: as §1

[8] = test system: soybean; test: Test B pre/postemergence soybean; format: in vivo, Glycine max
In short: as §1

[9] = test system: pigweed; test: Test B pre/postemergence pigweed; format: in vivo, Amaranthus retroflexus
In short: as §1

[10] = test system: corn; test: Test B pre/postemergence corn; format: in vivo, Zea mays
In short: as §1

[11] = test system: rape; test: Test B pre/postemergence rape; format: in vivo, Brassica napus
In short: as §1

[12] = test system: bedstraw; test: Test B pre/postemergence bedstraw; format: in vivo, Galium aparine; details: for Plant response rating, Bedstraw: scale of 0 to 10 where 0 is no effect and 10 is complete control; for Bedstraw plant response rating: 10 is complete control
In short: as §1

[13] = test system: velvetleaf; test: Test B pre/postemergence velvetleaf; format: in vivo, Abutilon theophrasti
In short: as §1

[14] = test system: giant foxtail; test: Test B pre/postemergence giant foxtail; format: in vivo, Setaria faberii
In short: as §1

[15] = test system: morningglory; test: Test B pre/postemergence morningglory; format: in vivo, Ipomoea hederacea
In short: as §1

[16] = test system: wild oat; test: Test B pre/postemergence wild oat; format: in vivo, Avena fatua
In short: as §1

[17] = Postemergence, Rate 62 g/ha, scale of 0 to 10, 0 is no effect, 10 is complete control
[18] = Postemergence, Rate 125 g/ha, scale 0 to 10, 0 is no effect, 10 is complete control
[19] = Postemergence, Rate 250 g/ha, scale 0 to 10
[20] = Postemergence, Rate 500 g/ha, scale 0 to 10, 0 is no effect, 10 is complete control
[21] = Preemergence, Rate 62 g/ha, scale of 0 to 10 where 0 is no effect and 10 is complete control
[22] = Preemergence, Rate 125 g/ha, scale 0 to 10, 0 is no effect, 10 is complete control
[23] = Preemergence, Rate 500 g/ha, scale of 0 to 10 where 0 is no effect and 10 is complete control
[24] = Postemergence, Rate 250 g/ha, scale 0 to 10, 0 no effect, 10 complete control
[25] = Preemergence, Rate 250 g/ha, scale 0 to 10, 0 is no effect, 10 is complete control
[26] = Preemergence, Rate 500 g/ha, scale 0 to 10, 0 is no effect, 10 is complete control
[27] = Preemergence, Rate 125 g/ha, scale 0 to 10, 0 is no effect
[28] = Preemergence, Rate 250 g/ha, scale 0 to 10, 0 is no effect
[29] = Preemergence, Rate 500 g/ha, scale 0 to 10, 0 is no effect

Cc1noc(C)c1Cn1c(=O)on(C(=O)N(c2ccc(F)cc2F)C(C)C)c1=O [Compound 510]
4: Cocklebur plant response rating [1, 19] | Plant response rating, Cocklebur [1, 20] | B. signalgrass plant response rating [2, 18] | B. signalgrass plant response rating [2, 24] | Sugarbeets plant response rating [4, 18] | Soybean plant response rating [8, 17] | Rape plant response rating [11, 18] | Bedstraw plant response rating [12, 29] | Velvetleaf plant response rating [13, 17] | Velvetleaf plant response rating [13, 18] | Giant foxtail plant response rating [14, 17] | Morningglory plant response rating [15, 17] | Plant response rating, Wild oats [16, 21]
0: Plant response rating, Cocklebur [1, 21] | Cocklebur plant response rating [1, 22] | Cocklebur plant response rating [1, 23] | Plant response rating, Sugarbeets [4, 21] | Sugarbeets plant response rating [4, 22] | Wheat plant response rating [5, 17] | Wheat plant response rating [5, 18] | Plant response rating, Wheat [5, 21] | Wheat plant response rating [5, 22] | Wheat plant response rating [5, 23] | Nutsedge plant response rating [7, 18] | Plant response rating, Nutsedge [7, 20] | Plant response rating, Nutsedge [7, 21] | Nutsedge plant response rating [7, 22] | Nutsedge plant response rating [7, 23] | Plant response rating, Soybean [8, 21] | Soybean plant response rating [8, 22] | Soybean plant response rating [8, 23] | Corn plant response rating [10, 17] | Corn plant response rating [10, 18] | Corn plant response rating [10, 19] | Plant response rating, Corn [10, 20] | Plant response rating, Corn [10, 21] | Corn plant response rating [10, 22] | Plant response rating, Bedstraw ([12]; Preemergence, Rate 62 g/ha) | Bedstraw plant response rating [12, 27] | Bedstraw plant response rating [12, 28] | Plant response rating, Morningglory [15, 21] | Morningglory plant response rating [15, 22] | Wild oats plant response rating [16, 17] | Wild oats plant response rating [16, 18]
10: Redroot pigweed plant response rating [9, 23] | Giant foxtail plant response rating [14, 23]
7: Plant response rating, B. signalgrass [2, 21] | B. signalgrass plant response rating [2, 22] | Sugarbeets plant response rating [4, 23] | Blackgrass plant response rating [6, 25] | Soybean plant response rating [8, 18] | Redroot pigweed plant response rating [9, 17] | Redroot pigweed plant response rating [9, 18] | Plant response rating, Redroot pigweed [9, 21] | Plant response rating, Velvetleaf [13, 20] | Wild oats plant response rating [16, 23]
5: Plant response rating, Crabgrass [3, 21] | Blackgrass plant response rating [6, 17] | Blackgrass plant response rating [6, 18] | Blackgrass plant response rating [6, 19] | Corn plant response rating [10, 23] | Rape plant response rating [11, 22] | Morningglory plant response rating [15, 18] | Morningglory plant response rating [15, 23] | Plant response rating, Wild oats [16, 20]
9: B. signalgrass plant response rating [2, 26] | Plant response rating, Crabgrass [3, 20] | Crabgrass plant response rating [3, 22] | Crabgrass plant response rating [3, 23] | Redroot pigweed plant response rating [9, 22] | Plant response rating, Rape [11, 20] | Rape plant response rating [11, 23] | Plant response rating, Giant foxtail [14, 20] | Plant response rating, Giant foxtail [14, 21] | Giant foxtail plant response rating [14, 22]
1: Rape plant response rating [11, 17] | Plant response rating, Velvetleaf [13, 21]
6: Plant response rating, B. signalgrass [2, 20] | Plant response rating, Blackgrass [6, 20] | Plant response rating, Blackgrass [6, 21] | Blackgrass plant response rating [6, 22] | Velvetleaf plant response rating [13, 23] | Giant foxtail plant response rating [14, 18] | Plant response rating, Morningglory [15, 20] | Wild oats plant response rating [16, 22]
8: B. signalgrass plant response rating [2, 25] | Crabgrass plant response rating [3, 18] | Crabgrass plant response rating [3, 19] | Plant response rating, Sugarbeets [4, 20] | Blackgrass plant response rating [6, 23] | Plant response rating, Soybean [8, 20]
2: B. signalgrass plant response rating [2, 17] | Sugarbeets plant response rating [4, 17] | Plant response rating, Rape [11, 21] | Velvetleaf plant response rating [13, 22]
3: Cocklebur plant response rating [1, 17] | Cocklebur plant response rating [1, 18] | Crabgrass plant response rating [3, 17] | Plant response rating, Wheat [5, 20]

CC(C)=CCn1c(=O)on(C(=O)N(c2ccc(F)cc2F)C(C)C)c1=O [Compound 515]
8: B. signalgrass plant response rating [2, 22] | B. signalgrass plant response rating [2, 25] | Crabgrass plant response rating [3, 18] | Blackgrass plant response rating [6, 23] | Plant response rating, Redroot pigweed [9, 21] | Plant response rating, Velvetleaf [13, 20] | Giant foxtail plant response rating [14, 17]
7: Crabgrass plant response rating [3, 22] | Sugarbeets plant response rating [4, 23] | Wheat plant response rating [5, 23] | Plant response rating, Soybean [8, 20]
2: Plant response rating, B. signalgrass [2, 21] | Velvetleaf plant response rating [13, 17] | Morningglory plant response rating [15, 17] | Morningglory plant response rating [15, 18]
1: Plant response rating, Blackgrass [6, 20]
9: B. signalgrass plant response rating [2, 26] | Crabgrass plant response rating [3, 19] | Plant response rating, Crabgrass [3, 20] | Crabgrass plant response rating [3, 23] | Redroot pigweed plant response rating [9, 22] | Giant foxtail plant response rating [14, 18] | Plant response rating, Giant foxtail [14, 20] | Wild oats plant response rating [16, 23]
10: Redroot pigweed plant response rating [9, 23] | Rape plant response rating [11, 23] | Plant response rating, Giant foxtail [14, 21] | Giant foxtail plant response rating [14, 22] | Giant foxtail plant response rating [14, 23]
6: Plant response rating, Crabgrass [3, 21] | Plant response rating, Rape [11, 20] | Bedstraw plant response rating ([12]; Postemergence, Rate 62 g/ha, scale of 0 to 10, 0 is no effect) | Bedstraw plant response rating ([12]; Postemergence, Rate 125 g/ha, scale 0 to 10, 0 is no effect) | Velvetleaf plant response rating [13, 23] | Plant response rating, Morningglory [15, 20]
4: Crabgrass plant response rating [3, 17] | Sugarbeets plant response rating [4, 22] | Soybean plant response rating [8, 17] | Soybean plant response rating [8, 18] | Redroot pigweed plant response rating [9, 18] | Rape plant response rating [11, 17] | Rape plant response rating [11, 18] | Rape plant response rating [11, 22] | Velvetleaf plant response rating [13, 18]
3: Cocklebur plant response rating [1, 18] | Cocklebur plant response rating [1, 19] | Plant response rating, B. signalgrass [2, 20] | Sugarbeets plant response rating [4, 17] | Sugarbeets plant response rating [4, 18] | Plant response rating, Sugarbeets [4, 20] | Plant response rating, Blackgrass [6, 21] | Redroot pigweed plant response rating [9, 17] | Bedstraw plant response rating [12, 29] | Plant response rating, Wild oats [16, 21]
5: Plant response rating, Cocklebur [1, 20] | Blackgrass plant response rating [6, 22] | Blackgrass plant response rating [6, 25] | Plant response rating, Redroot pigweed [9, 20] | Corn plant response rating [10, 23] | Wild oats plant response rating [16, 22]
0: Cocklebur plant response rating [1, 17] | Plant response rating, Cocklebur [1, 21] | Cocklebur plant response rating [1, 22] | Cocklebur plant response rating [1, 25] | Cocklebur plant response rating [1, 23] | B. signalgrass plant response rating [2, 17] | B. signalgrass plant response rating [2, 18] | B. signalgrass plant response rating [2, 24] | Plant response rating, Sugarbeets [4, 21] | Wheat plant response rating [5, 17] | Wheat plant response rating [5, 18] | Plant response rating, Wheat [5, 20] | Plant response rating, Wheat [5, 21] | Wheat plant response rating [5, 22] | Blackgrass plant response rating [6, 17] | Blackgrass plant response rating [6, 18] | Blackgrass plant response rating [6, 19] | Nutsedge plant response rating [7, 17] | Nutsedge plant response rating [7, 18] | Plant response rating, Nutsedge [7, 20] | Plant response rating, Nutsedge [7, 21] | Nutsedge plant response rating [7, 22] | Nutsedge plant response rating [7, 23] | Plant response rating, Soybean [8, 21] | Soybean plant response rating [8, 22] | Soybean plant response rating [8, 23] | Corn plant response rating [10, 17] | Corn plant response rating [10, 18] | Corn plant response rating [10, 19] | Plant response rating, Corn [10, 20] | Plant response rating, Corn [10, 21] | Corn plant response rating [10, 22] | Plant response rating, Rape [11, 21] | Plant response rating, Bedstraw ([12]; Preemergence, Rate 62 g/ha) | Bedstraw plant response rating [12, 27] | Bedstraw plant response rating [12, 28] | Plant response rating, Velvetleaf [13, 21] | Velvetleaf plant response rating [13, 22] | Plant response rating, Morningglory [15, 21] | Morningglory plant response rating [15, 22] | Morningglory plant response rating [15, 23] | Wild oats plant response rating [16, 17] | Wild oats plant response rating [16, 18] | Plant response rating, Wild oats [16, 20]
